Several values for one entry are separate records, joined by “and”; a condition that tells them apart may be missing. Equal entries are not always repeated.
Target: T1, human FAAH (Fatty Acid Amide Hydrolase) (Homo sapiens, UniProt O00519)
T1 construct: The full length FAAH was subcloned into the mammalian expression vector, pcDEF.neo, using XbaI and EcoRI restriction sites; expressed in transfected cells
T1 sequence (O00519 1-579): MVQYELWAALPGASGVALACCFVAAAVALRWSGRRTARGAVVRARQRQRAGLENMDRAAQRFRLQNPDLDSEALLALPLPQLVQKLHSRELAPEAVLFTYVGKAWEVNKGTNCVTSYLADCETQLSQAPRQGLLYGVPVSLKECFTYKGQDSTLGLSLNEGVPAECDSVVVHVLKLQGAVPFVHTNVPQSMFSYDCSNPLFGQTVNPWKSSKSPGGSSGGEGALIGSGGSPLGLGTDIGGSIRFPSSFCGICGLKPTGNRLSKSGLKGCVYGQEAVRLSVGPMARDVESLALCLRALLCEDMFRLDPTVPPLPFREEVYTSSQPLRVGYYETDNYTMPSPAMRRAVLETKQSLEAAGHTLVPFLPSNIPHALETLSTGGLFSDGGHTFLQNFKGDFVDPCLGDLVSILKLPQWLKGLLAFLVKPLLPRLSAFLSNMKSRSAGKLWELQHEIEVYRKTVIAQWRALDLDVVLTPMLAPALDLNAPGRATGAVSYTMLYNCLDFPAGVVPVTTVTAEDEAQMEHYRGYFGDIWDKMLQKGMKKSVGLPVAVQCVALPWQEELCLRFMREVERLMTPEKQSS
Experiment: FAAH whole cell assay on CHO cells expressing human FAAH (human WC), AAMCA fluorescent substrate
Type: cell-based
Conditions: human FAAH_CHO whole cell
Source text: (§1) To assist in assay development stable cell lines for human, murine and rat full length FAAH were developed. Human FAAH cDNA (Accession No: NM_001441.1) was purchased from Origene (Rockville, Md.). The full length FAAH was subcloned into the mammalian expression vector, pcDEF.neo, using XbaI and EcoRI restriction sites and used for stable cell line generation.
Murine (accession number NM_010173) and Rat FAAH (accession number NM_024132) was amplified by reverse transcriptase polymerase chain reaction (RT-PCR) from brain cDNA (BD Biosciences, San Jose, Calif.) using primers 1 and 2 or primers 1 and 3 respectively (see Table). The resulting PCR product was ligated into pCR4 TOPO and DNA sequence confirmed. The full length murine FAAH was subcloned into the mammalian expression vector, pcDEFneo using either EcoRI (murine) or KpnI and EcoRI (rat) restriction sites. Chinese hamster ovary cells (CHO) were transfected following manufacturers protocol (AMAXA). Forty eight hours post transfection, cells were trypsinized and transferred to 96 well plates in Iscove's DMEM media supplemented with 2 mM Glutamine, 10% fetal calf serum, 1 mg/ml geneticin and HT Supplement (0.1 mM sodium hypoxanthine, 0.016 mM thymidine) in order to isolate single clones. Following selection in geneticin, individual clones were selected and FAAH activity was assessed using a whole cell fluorescent anandamide assay, modified from Ramarao et al (2005). Following removal of tissue culture media cells were dislodged following addition of Cellstripper (Mediatech, Inc. Manassas, Va.) and transferred to 96 well black clear bottom assay plate, centrifuged at 1,000 rpm for 3 mins and media removed and replaced with assay buffer (50 mM Tris pH8.0, 1 mM EDTA, 0.1% fatty acid free BSA). The reaction was initiated by addition of fluorescent substrate, AMC Arachidonoyl Amide (Cayman Chemical, Ann Arbor, Mich.) to 1 μM and reaction allowed to proceed for 2 hours at room temperature. Release of fluorescence was monitored in a CytoFluor Multiplate Reader. Cells expressing the highest amount of FAAH activity were selected for study with FAAH inhibitors.
(§2) (American Radiolabeled Chemicals; 1 mCi/ml) with FAAH (Life Sciences (1995), 56, 1999-2005 and Journal of Pharmacology and Experimented Therapeutics (1997), 283, 729-734), Analytical. Biochemistry (2003), 318, 270-5. In addition, routine assays were performed monitoring hydrolysis of arachidonyl-7-amino-4-methylcoumarin amide (AAMCA) by following increase in fluorescence upon release of 7-amino 4-methyl coumarin (λEX=355 nm, μEM=460 nm). Analytical. Biochemistry (2005). 343, 143-51
Assays are performed on either cell lysate or microsome fractions prepared as described or in whole cell format employing either the fluorescent substrate AAMCA (Cayman chemical, Ann Arbor, Mich.,) or ^3H-anandamide ([ETHANOLAMINE-1-3H] American Radiolabeled Chemicals; 1 mCi/ml). The cell lysate or microsome assay is performed in black PerkinElmer OptiPlates-384F by adding FAAH_CHO (whole cell (human whole cell or human WC), cell lysate (human cell lysate or human LY) or microsome) in assay buffer (50 mM Phosphate, pH 8.0, 1 mM EDTA, 200 mM KCl, 0.2% glycerol, 0.1% fatty acid free BSA) to each well, followed by either DMSO or compound and allowed to incubate at 22-25° C. for fifteen minutes. AAMCA substrate was used to achieve a final concentration of 1 μM and reaction allowed to proceed at room temperature for 1-3 hours. Fluorescent release as a measure of FAAH activity was monitored by reading the plate in a Envision plate Reader (Ex: 360/40 nM; Em: 460/40 nM). Whole cell assay is conducted with cells harvested after rinsing tissue culture flasks three times with Ca^++Mg^++ free PBS, incubating for […] in Enzyme free dissociation media and centrifuging for 5 minutes at 1,000 rpm in table top centrifuge. […]

IC50	Structure (SMILES)
0.0316 µM and 0.0604 µM	OC1CC=C(c2[nH]c3ncccc3c2Sc2ccc(Cl)cn2)CC1 (stereo not shown) [Example A28]
0.00462 µM	Clc1ccc(Sc2c(-c3ccc4c(c3)OCO4)[nH]c3ncccc23)cc1 [Example B4, 2-(1,3-benzodioxol-5-yl)-3-[(4-chlorophenyl)sulfanyl]-1H-pyrrolo[2,3-b]pyridine]
1.09 µM	O=C(c1[nH]c2ncccc2c1Sc1ccc(Cl)cc1)N1CCC(O)CC1 [Example C6, {3-[(4-chlorophenyl)sulfanyl]-1H-pyrrolo[2,3-b]pyridin-2-yl}(4-hydroxypiperidin-1-yl)methanone]
0.363 µM	O=C(NCCCCO)c1[nH]c2ncccc2c1Sc1ccc(Cl)cc1 [Example C21]
0.0356 µM	OC[C@H]1CC[C@H](c2[nH]c3ncccc3c2Sc2ccc(Cl)cc2)CC1 [Example B52]
0.0649 µM	CCOC(=O)CCc1[nH]c2ncccc2c1Sc1ccc(Cl)cc1 [Example F3, Ethyl 3-{3-[(4-chlorophenyl)sulfanyl]-1H-pyrrolo[2,3-b]pyridin-2-yl}propanoate]
0.266 µM	Clc1ccc(Sc2c(CC3CCCCC3)[nH]c3ncccc23)cc1 [Example F4]
0.0885 µM	C[C@@H](Cc1[nH]c2ncccc2c1Sc1ccc(Cl)cc1)C(C)(C)O [Example H8]
0.689 µM	OCCCc1[nH]c2ncccc2c1Sc1ccc(Cl)cc1 [Example H4, 3-{3-[(4-chlorophenyl)sulfanyl]-1,1-pyrrolo[2,3-b]pyridin-2-yl}propan-1-ol]
0.504 µM	Cn1cccc2c(Sc3ccc(Cl)cc3)c(C(=O)NC3CCC(O)CC3)nc1-2 (stereo not shown) [Example E26]
0.0318 µM	CC(C)(O)CN1CCC(c2[nH]c3ncccc3c2Sc2ccc(Cl)cc2)CC1 [Example H5]
0.152 µM	CC(C)(O)CCc1[nH]c2ncccc2c1Sc1ccc(Cl)cc1 [Example H2, 4-{3-[(4-chlorophenyl)sulfanyl]-1H-pyrrolo[2,3-b]pyridin-2-yl}-2-methylbutan-2-ol]
0.0238 µM	COC(=O)CN1CCC(c2[nH]c3ncccc3c2Sc2ccc(Cl)cc2)CC1 [Example G7, Methyl (4-{3-[(4-chlorophenyl)sulfanyl]-1H-pyrrolo[2,3-b]pyridin-2-yl}piperidin-1-yl)acetate]
3.47 µM	N#CCCCc1[nH]c2ncccc2c1Sc1ccc(Cl)cc1 [Example F6]
0.523 µM	OCCCCc1[nH]c2ncccc2c1Sc1ccc(Cl)cc1 [Example H6]
2.98 µM	O=C(NCCO)c1[nH]c2ncccc2c1Sc1ccc(Cl)cc1 [Example C18]

IC50	Structure (SMILES)
0.112 µM	C[C@@H](Cc1nc2n(C)cccc-2c1Sc1ccc(Cl)cc1)C(C)(C)O [Example E27]
0.607 µM	O=C(NCCCO)c1[nH]c2ncccc2c1Sc1ccc(Cl)cc1 [Example C19]
0.024 µM	Cn1cccc2c(Sc3ccc(Cl)cc3)c(-c3ccc4c(c3)CNC4=O)nc1-2 [Example E28]
0.025 µM	Cn1cc2cc(-c3[nH]c4ncccc4c3Sc3ccc(Cl)cn3)ccc2n1 [Example B44]
1.17 µM	O=C(NCC1(CO)CCOCC1)c1[nH]c2ncccc2c1Sc1ccc(Cl)cc1 [Example C22]
0.00935 µM	COC(=O)N1CCC(c2nc3n(C)cccc-3c2Sc2ccc(Cl)cc2)CC1 [Example E32]
0.672 µM	Clc1ccc(Sc2c(C3CCNCC3)[nH]c3ncccc23)cc1 [Example G3, 3-[(4-chlorophenyl)sulfanyl]-2-(piperidin-4-yl)-1H-pyrrolo[2,3-b]pyridine]
0.0111 µM	COC(=O)N1CCC(c2[nH]c3ncccc3c2Sc2ccc(Cl)cc2)CC1 [Example G5, Methyl 4-{3-[(4-chlorophenyl)sulfanyl]-1H-pyrrolo[2,3-b]pyridin-2-yl}piperidine-1-carboxylate]
0.144 µM	Cn1cccc2c(Sc3ccc(Cl)cn3)c(-c3ccc4c(c3)CNC4=O)nc1-2 [Example E31]
0.00584 µM	Cn1cc2cc(-c3[nH]c4ncccc4c3Sc3ccc(Cl)cc3)ccc2n1 [Example B42]
0.0872 µM	Cn1cc2cc(-c3nc4n(C)cccc-4c3Sc3ccc(Cl)cn3)ccc2n1 [Example E30]
0.0173 µM	Cn1cc2cc(-c3nc4n(C)cccc-4c3Sc3ccc(Cl)cc3)ccc2n1 [Example E29]
1.2 µM	C[C@H](CO)Cc1[nH]c2ncccc2c1Sc1ccc(Cl)cc1 [Example H7]
2.11 µM	C[C@H](CO)NC(=O)c1[nH]c2ncccc2c1Sc1ccc(Cl)cc1 [Example C20]
0.0595 µM	Cn1cccc2c(Sc3ccc(Cl)cc3)c(-c3ccc(C(O)C(F)F)cc3)nc1-2 (stereo not shown) [Example E25]

Structure (SMILES)	IC50
CCOC(=O)CCCc1[nH]c2ncccc2c1Sc1ccc(Cl)cc1 [Example F10]	0.35 µM

Target: T1, human FAAH (Fatty Acid Amide Hydrolase)
Experiment: FAAH enzyme assay on CHO cell lysate expressing human FAAH (human LY), AAMCA fluorescent substrate
Type: biochemical
Conditions: human FAAH_CHO cell lysate
Source text: as §1
CHO cells expressing FAAH were used to prepare either crude cell lysate or microsome fractions. To harvest cells, tissue culture media was decanted, the monolayer washed three times with Ca^++Mg^++ free PBS and cells recovered after […] in enzyme free dissociation media (Millipore Corp, Billerica, Mass.). Cells were collected by centrifuging at 2000 rpm for 15 min. and the cell pellet re-suspended with 50 mM HEPES (pH 7.4) containing 1 mM EDTA and the protease inhibitors aprotinin (1 mg/ml) and leupeptin (100 μM). The suspension was sonicated at 4° C. and the cell lysate recovered after centrifuging at 12,000×g (14,600 rpm, SS34 rotor) for 20 min at 4° C. to form a crude pellet of cell debris, nuclei, peroxisomes, lysosomes, and mitochondria; the supernatant or cell lysate was used for FAAH enzyme assay. In some cases, microsomes fractions enriched in FAAH were prepared by centrifuging the cell lysate further at 27,000 rpm (100,000×g) in SW28 rotor for 50 minutes at 4° C. The pellet containing FAAH-enriched microsomes was re-suspend in 50 mM HEPES, (pH 7.4) 1 mM EDTA, and any remaining DNA sheared by passage of material through a 23 gauge needle and aliquots of enzyme were store at −80° C. prior to use.
as §2
Assays are performed on either cell lysate or microsome fractions prepared as described or in whole cell format employing either the fluorescent substrate AAMCA (Cayman chemical, Ann Arbor, Mich.,) or ^3H-anandamide ([ETHANOLAMINE-1-3H] American Radiolabeled Chemicals; 1 mCi/ml). The cell lysate or microsome assay is performed in black PerkinElmer OptiPlates-384F by adding FAAH_CHO (whole cell (human whole cell or human WC), cell lysate (human cell lysate or human LY) or microsome) in assay buffer (50 mM Phosphate, pH 8.0, 1 mM EDTA, 200 mM KCl, 0.2% glycerol, 0.1% fatty acid free BSA) to each well, followed by either DMSO or compound and allowed to incubate at 22-25° C. for fifteen minutes. AAMCA substrate was used to achieve a final concentration of 1 μM and reaction allowed to proceed at room temperature for 1-3 hours. Fluorescent release as a measure of FAAH activity was monitored by reading the plate in a Envision plate Reader (Ex: 360/40 nM; Em: 460/40 nM). Whole cell assay is conducted with cells harvested after rinsing tissue culture flasks three times with Ca^++Mg^++ free PBS, incubating for […] in Enzyme free dissociation media and centrifuging for 5 minutes at 1,000 rpm in table top centrifuge. Cells are resuspended in assay buffer at desired cell number in (4×10^4 cells/assay in 96-well format; 1×10^4 cells/assay in 384-well format) and assayed as described.

IC50	Structure (SMILES)
0.0118 µM and 0.0205 µM	OC1CC=C(c2[nH]c3ncccc3c2Sc2ccc(Cl)cn2)CC1 (stereo not shown) [Example A28]
0.000508 µM	Clc1ccc(Sc2c(-c3ccc4c(c3)OCO4)[nH]c3ncccc23)cc1 [Example B4, 2-(1,3-benzodioxol-5-yl)-3-[(4-chlorophenyl)sulfanyl]-1H-pyrrolo[2,3-b]pyridine]
